The structures appear in SMILES notation.

Regarding `O=C1NC(=O)C(Nc2ccc(CCNCC(O)COc3ccc(-c4ccccc4)cc3)cc2)S1` (stereo not drawn), the melting point lay in the range of 70 to 71 °C.

Turning to `COC(c1nccs1)(c1nccs1)C(F)(F)F`, the melting point fell in the range of 40 to 41 °C.

The compound `CC(=O)OCc1cccc(Cl)c1NS(=O)(=O)c1nc2nc(C)cc(C)n2n1` registered a melting point of 214 to 217 °C.

With `CC(C)(C)OC(=O)NCCc1cccc(C(=O)c2cc(Cl)ccc2N)c1`, the melting point lay within 128 to 129 °C.

`CCc1ccc(CC(C)(C)NC(C)=O)cc1` had a melting point of 90 to 92 °C.

As to `CNC(=O)c1ccc(C(F)(F)F)c(N)c1`, the melting point is 114 to 115 °C.

`O=C(c1ccc(F)cc1)C1CCN(CCCCl)CC1` had a melting point of 66.5 to 68.5 °C.

`O=C1N(Cc2ccc(F)cn2)c2ccccc2C12COc1cc3c(cc12)OCCO3` (stereo not drawn) yielded a melting point of 174 to 176 °C.

Take `CC(=N)NC(=O)Nc1ccc(C)cc1`: the melting point is 210 to 212 °C.

The compound `CCOC(=O)c1cn(C2CC2)c2nc(Sc3ccc(C)cc3)c(F)cc2c1=O` returned a melting point of 186 to 187 °C.

`Cc1ccc2[nH]c(=O)oc2c1` gave a melting point of 144 to 145 °C.

In turn, `COCc1cc(O)c2nc(C)n(C)c2c1` registered a melting point of 219 to 220 °C.

With `CP(=O)(O)C(O)C(CN)c1ccc(Cl)cc1` (stereo not drawn), the melting point lay in the range of 240 to 241 °C.

Consider `O=C1NCCN(C(c2ccccc2)(c2ccccc2)c2ccccc2)C1=O`, for which the melting point fell in the range of 230 to 235 °C.

Turning to `Cc1cc(NCC(O)CO)c2ccccc2n1` (stereo not drawn), the melting point lay in the range of 167 to 168 °C.

The compound `O=C(O)CCCCCc1c(-c2cccnc2)[nH]c2ccc(O)cc12` showed a melting point of 185 to 187 °C.

For the compound `CCOc1nn(-c2ccc(C(F)(F)F)cn2)cc1CCO`, the melting point was in the range of 75 to 76 °C.

In turn, `C=CCCOC[C@H]1CC[C@H](c2ccc(C#N)cc2)CC1` registered a melting point of 12.7 °C.

`CS(=O)(=O)c1ccc(-n2cc(-c3ccc(Cl)cc3)nc2-c2ccc(Cl)cc2)cc1` registered a melting point of 169 to 171 °C.

`COc1cccc(-c2ccc3ccc(OC)cc3c2)c1`: the melting point is 58 to 59 °C.

For `CC(C(N)=O)c1ccc2c(c1)CCc1cccnc1S2` (stereo not drawn), the melting point was 174 to 175 °C.

In the case of `CNC(=O)C1(CCCCCCCCCCCCC2(C(=O)NS(C)(=O)=O)CC2)CC1`, the melting point lay within 111 to 112 °C.

Consider `CC(=CCOc1ccc(OC(C)(C)C(=O)O)cc1)c1ccc(-c2ccccc2)cc1`, for which the melting point lay in the range of 148 to 150 °C.

`CS(=O)c1ccc(C2=C(Br)C(=O)C(C)(C)O2)cc1` (stereo not drawn): the melting point lay in the range of 117 to 118 °C.

`OCc1c(-c2ccc(F)cc2)nn2ccc3c(c12)CCO3`: the melting point fell in the range of 189 to 190 °C.

As to `COc1cc(OC)c(C(C)=O)c(O)c1CCC(C)C`, the melting point amounted to 100 °C.

Consider `CC1(CNC(=O)C2CCCCC2)OCCc2c1[nH]c1ccccc21` (stereo not drawn), for which the melting point is 174 to 175 °C.

Turning to `CN1CCN(c2ccc(N)c(C(=O)O)c2)CC1`, the melting point was 212 °C.

For the compound `CN(C)CCNC(=O)c1cccc([N+](=O)[O-])c1`, the melting point is 89 to 90 °C.

As to `CC(=O)OC1CCC2(C)C(=CC(=O)C3C2CCC2(C)C(C(C)CCCC(C)(C)C)CCC32)C1` (stereo not drawn), the melting point lay within 183 to 186 °C.

With `CN(C)C(=S)N(C)Cc1ccc(CCn2cnc3cc(-c4ccc(Cl)cc4)sc3c2=O)cc1`, the melting point was 156 to 158 °C.

`Cn1nc(Cl)n(-c2ccccc2CBr)c1=O` came in with a melting point of 132 to 133 °C.

For `CC(C)NCC1(O)COc2ccc(O)cc2OC1` (stereo not drawn), the melting point fell in the range of 108 to 110 °C.

Take `O=C1CC(C(F)(F)F)Oc2cc(Cl)c(Cl)cc21` (stereo not drawn): the melting point was in the range of 94.5 to 97 °C.

As to `CC(=O)NCC1CN(c2cc(F)c(N3CCN(C(=O)COC(=O)n4ccnc4)CC3)c(F)c2)C(=O)O1` (stereo not drawn), the melting point lay in the range of 199 to 200 °C.

Regarding `COC(=O)COc1c2c(cc3c1c1c(C(N)=O)cccc1n3Cc1ccccc1)CCCC2`, the melting point is 174 to 177 °C.

`Nc1cc(Cl)c(N2CCCCC2)cc1-c1noc(=O)[nH]1` displayed a melting point of 186 to 189 °C.

With `Cc1ccc2c(c1)sc1ncc(C=O)n12`, the melting point lay in the range of 170 to 171 °C.

Take `c1ccc2sc(N3CCNCC3)nc2c1`: the melting point is 63 to 64 °C.

For `Nc1c(NCc2ccccc2F)ccnc1Cl`, the melting point was in the range of 181 to 187 °C.

`CCCCCCCCCCCCCCCCCCOc1cccc(CC(=O)N(CC(=O)OC)CC(=O)OC)c1` gave a melting point of 52 to 55 °C.

Compound `Cc1c(Br)c[nH]c1C=O` displayed a melting point of 140 to 143 °C.

For the compound `CCCCCCC1C(=O)NC(C(=O)SCc2ccccc2)(C(O)C2C=CCCC2)C1(C)O` (stereo not drawn), the melting point came out at 138 °C.

Take `CN(C)c1cc(N2C(=O)N3CCCC3(Cc3ccc(Br)cc3)C2=O)cc(Cl)n1` (stereo not drawn): the melting point is 194 °C.

Compound `Cn1cc(S(=O)(=O)Cl)c(=O)c2ccccc21` showed a melting point of 313 to 315 °C.

`CCc1ncnc(N[C@H]2CC[C@@H](C#N)CC2)c1Cl` registered a melting point of 131 to 132 °C.

The compound `CC(C)n1nc(-c2sc(N(C)C)nc2-c2ccccc2)ccc1=O` registered a melting point of 158 to 160 °C.

`CC(=O)NC[C@H]1CN(c2ccc(N3C[C@@H]4C[C@H]3CO4)c(F)c2)C(=O)O1` registered a melting point of 60 to 65 °C.

Regarding `CC(=O)Nc1ccc2cccc(Oc3cc(-c4ccc(C(F)(F)F)cc4)ncn3)c2n1`, the melting point lay in the range of 204 to 206 °C.

On to `CCCc1ccnc2c(=O)[nH]c(-c3cc([N+](=O)[O-])ccc3OCC)nc12`, for which the melting point is 257 to 259 °C.

`Cc1oc(-c2ccco2)nc1COc1ccc(C=O)cc1Br` yielded a melting point of 146 to 147 °C.

Regarding `Cc1cc(C)c(=O)n(C(C(=O)NS(=O)(=O)c2ccc(C(C)C)cc2)c2ccc3c(c2)OCO3)n1` (stereo not drawn), the melting point is 105 °C.

As to `COc1cc2c(c(OC(C)=O)c1OC)=NC(=O)C(=O)N=2`, the melting point is 321 to 322 °C.

For the compound `CCCCCCCCCCCCCCCCOCC(O)CN1CCC(c2ccccc2)CC1` (stereo not drawn), the melting point is 64 to 65 °C.

The compound `CCOC(=O)NNc1ccc(N(C)CCO)nn1` registered a melting point of 131 to 133 °C.

Regarding `CCOC(=O)C1CNc2ccc(C)cc2O1` (stereo not drawn), the melting point lay within 90 to 92 °C.

With `CCCCCCCCCCCCOc1ccc(CP(=O)(OC)OC)cc1`, the melting point is 30 to 31 °C.

Take `CCOC(=O)C1=C(C)NC(C)=C(C#N)C1c1cccc2c1SC(c1ccccc1)=CC2` (stereo not drawn): the melting point fell in the range of 206 to 207 °C.

In the case of `OC(COc1ccccc1)CN1CCN(c2nc3nccc(-c4ccncc4)n3n2)CC1` (stereo not drawn), the melting point was 143 to 145 °C.

The compound `CC(ON1C(C)(C)CNC(=O)CC1(C)C)c1ccccc1` (stereo not drawn) came in with a melting point of 125 to 127 °C.

Take `CCCCOC(=O)NS(=O)(=O)/C=C/c1cc(OCCCC)nn1Cc1ccc(Cl)cc1Cl`: the melting point was 137 to 138 °C.

For the compound `O=C(NC1=Nc2cc(O)ccc2C2=NCCN12)c1cccnc1`, the melting point was found to be 289 °C.

For `CNc1ncnc2c1nnn2Cc1ccccc1F`, the melting point fell in the range of 180 to 182 °C.

As to `[N-]=[N+]=NCCc1cccc2[nH]cc(S(=O)(=O)c3cccc(F)c3)c12`, the melting point was in the range of 136 to 138 °C.

As to `Oc1ccc(Cc2ccc(OCc3ccccc3)cc2)cc1`, the melting point fell in the range of 95 to 96 °C.

`Cc1ccc(NCc2ccc(N(C)C)cc2)cc1C` had a melting point of 73 to 75 °C.

With `Cc1cc2c(C=O)c3ccccc3c(C=O)c2cc1C`, the melting point is 203 to 204 °C.

Regarding `Cc1nc2ccc(O)cc2c(=O)n1C1CCC(=O)NC1=O` (stereo not drawn), the melting point was 315 to 317 °C.

`O=C(O)CCCOc1ccc(N2CCN(c3ccncc3)CC2)cc1` showed a melting point of 305 to 306 °C.

On to `CN1C(=O)N(CCN2C(=O)N(C)C(O)C2O)C(O)C1O` (stereo not drawn), for which the melting point lay in the range of 158 to 161 °C.

`COc1ccc(-c2cc(OC)c(OC)cc2[N+](=O)[O-])cc1OC`: the melting point fell in the range of 149 to 151 °C.

Compound `CCCC=COC1OC(CO)C(O)C(O)C1NC(C)=O` (stereo not drawn) gave a melting point of 146 to 148 °C.

Regarding `C[C@H]1CCCN(C(=O)[C@@H]2Cc3ccccc3N2c2ccc(=S)n(C)n2)C1`, the melting point is 249 to 252 °C.

As for `O=S(=O)(Nc1ccccc1OC(c1ccncc1)C1CCNCC1)c1ccc2cc(Br)ccc2c1` (stereo not drawn), the melting point is 197 to 200 °C.

Consider `Cc1cccc(-c2nc3cccnn3c2-c2ccnc(NCc3ccco3)c2)c1`, for which the melting point is 150 to 151 °C.

In turn, `COc1ccc(CNC(=O)c2ccc([N+](=O)[O-])cc2N)cc1` came in with a melting point of 129 to 131 °C.

Regarding `O=C1NCNC12CCCc1ccccc12` (stereo not drawn), the melting point fell in the range of 181 to 183 °C.

The compound `O=C1Nc2cccc(-c3cccc(NC(=O)c4ccc(F)cc4)c3)c2/C1=C/c1ccc[nH]1` displayed a melting point of 130 to 131 °C.

Regarding `CC(C)CNC(=O)C=CCBr`, the melting point lay in the range of 94 to 95 °C.

Regarding `O=S(=O)(NCC1CC1)c1cccc(-c2cc(-c3nc(-c4ccc(C(F)(F)F)cc4)cc(C(F)(F)F)n3)ccn2)c1`, the melting point is 134 °C.

In turn, `COc1ccc(OCCCO)cc1` had a melting point of 56 to 60 °C.

`Cn1ncnc1COc1nc2c(cnn2-c2ccccc2)cc1C(C)(C)C` displayed a melting point of 143 to 145 °C.

In the case of `COc1ccc(-c2cn3ccc(C)cc3n2)cc1OC`, the melting point worked out at 163 °C.

`O=C(O)CCC(=NOCc1ccc(OCc2cn3ccccc3n2)cc1)c1ccccc1` displayed a melting point of 180 to 182 °C.

Regarding `Cc1cccc2c(Nc3ccc(OCCN(CCCl)CCCl)cc3)c3cccc(C(=O)NCCN(C)C)c3nc12`, the melting point is 185 to 186 °C.

In turn, `C[N+]1([O-])CCC(=C(c2ccsc2)c2ccsc2)CC1` (stereo not drawn) displayed a melting point of 92 to 96 °C.

Regarding `N#Cc1[nH]c2ccc([N+](=O)[O-])cc2c1-c1ccccc1`, the melting point lay within 242 to 254 °C.

The compound `O=C(C=Cc1ccc(-c2nnn[nH]2)cc1)N1CCc2c([nH]c3ccccc23)C1c1ccc2c(c1)OCO2` (stereo not drawn) showed a melting point of 232 to 233 °C.

Compound `CCOCc1nc2c(N)nc3cc(N4CCOC4=O)ccc3c2n1CC(C)(C)O` displayed a melting point greater than 250 °C.

Compound `CC(C)CCCC(C)C1CCC2C3CC4(OCCO4)C4CC(O)CCC4(C)C3CCC12C` (stereo not drawn) returned a melting point of 114 to 115 °C.

In turn, `CCOC(=O)CN1CCN(c2ccc(C#N)cc2)CC1=O` had a melting point of 108 °C.

In turn, `COC(=O)CCCc1cc2nc(C(F)(F)F)ccc2n1S(=O)(=O)c1ccc(C(C)C)cc1` came in with a melting point of 78 °C.

Take `Nc1cc(Cl)c(Sc2ccc(C(F)(F)F)cc2Cl)cc1F`: the melting point came out at 80.8 °C.

The melting point is the temperature of the solid-liquid transition.

The values are drawn from a melting point compilation (Tetko et al.; mined from patent text by program, amines drawn as free bases though some values may be those of a salt).
